Source: patent publication US11912701B2, “Protein kinase inhibitors for promoting liver regeneration or reducing or preventing hepatocyte death” (HEPAREGENIX GMBH, priority 2018, dated 2024)
pIC50: −log10 of the molar value.

Experiments:
JNK1 [1] = target: T1, JNK1 (Homo sapiens, UniProt P45983); assay: KINOMEscan competition binding assay, JNK1; design: M1/Q384; host or cells: HEK-293; conditions: ratio PoC (off-target)/PoC (MKK4)
Procedure: (§1) The assay was performed by combining three components: DNA-tagged kinase; immobilized ligand; and a test compound. The ability of the test compound to compete with the immobilized ligand was measured via quantitative PCR of the DNA tag. The technology is described in detail in Fabian, M. A. et al. A small molecule-kinase interaction map for clinical kinase inhibitors. Nat. […] Nat.
(§2) For investigation of the affinity to MKK4, BRaf, MKK7 and JNK1, the kinases were produced in HEK-293 cells and subsequently tagged with DNA for qPCR detection. […] The liganded beads were blocked with excess biotin and washed with blocking buffer (SEABLOCK™ (Pierce), 1% BSA, 0.05% TWEEN®20, 1 mM DTT) to remove unbound ligand and to reduce nonspecific binding. […] All reactions were performed in polystyrene 96-well plates in a final volume of 0.135 mL. […] The kinase concentration in the eluates was measured by qPCR.
(§3) The test compounds were provided as 10 mM stock solutions. The test solutions at indicated final concentrations were prepared at DiscoverX.
(§4) Potency of representative examples against the protein kinases MKK4, BRaf, MKK7 and JNK1 expressed as residual percent of control binding (PoC), was determined at a concentration of 100 nM. The determined potencies are categorized as follows:
(§5) The binding selectivity of representative examples against the protein kinases BRaf, MKK7 and JNK1, altogether denominated as “off-targets” is determined by the ratios of PoC (off-target)/PoC (MKK4).
Target sequence in this assay (P45983 1-384 isoform P45983-2): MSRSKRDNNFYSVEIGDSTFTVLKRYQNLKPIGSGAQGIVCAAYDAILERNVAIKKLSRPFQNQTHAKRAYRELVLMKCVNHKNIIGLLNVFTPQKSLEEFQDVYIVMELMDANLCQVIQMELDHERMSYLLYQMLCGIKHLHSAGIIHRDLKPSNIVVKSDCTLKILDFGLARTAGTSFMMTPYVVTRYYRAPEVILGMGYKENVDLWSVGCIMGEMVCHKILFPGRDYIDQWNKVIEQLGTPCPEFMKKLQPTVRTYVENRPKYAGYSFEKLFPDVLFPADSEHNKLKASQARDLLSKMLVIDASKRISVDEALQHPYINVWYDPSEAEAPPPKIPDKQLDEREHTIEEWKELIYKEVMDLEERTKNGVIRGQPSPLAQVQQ

MKK4 [2] = target: T2, MKK4 (Homo sapiens, UniProt P45985); assay: KINOMEscan competition binding assay, MKK4; conditions: residual percent of control binding (PoC) at 100 nM
T2 construct: S84/D399; host or cells: HEK-293
T2 sequence (P45985 84-399): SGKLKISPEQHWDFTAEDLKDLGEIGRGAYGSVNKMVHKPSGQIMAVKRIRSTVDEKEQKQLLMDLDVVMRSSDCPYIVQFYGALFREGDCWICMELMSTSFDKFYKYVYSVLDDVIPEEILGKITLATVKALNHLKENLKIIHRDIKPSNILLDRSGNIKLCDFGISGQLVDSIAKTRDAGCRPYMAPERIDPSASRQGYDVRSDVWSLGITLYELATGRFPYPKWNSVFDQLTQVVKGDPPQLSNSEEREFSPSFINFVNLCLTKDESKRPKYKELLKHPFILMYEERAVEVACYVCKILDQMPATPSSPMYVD
Procedure: as §1, §2, §3
Potency of representative examples against the protein kinases MKK4, BRaf, MKK7 and JNK1 expressed as residual percent of control binding (PoC), was determined at a concentration of 100 nM. The determined potencies are categorized as follows: […]

BRaf [3] = target: T3, BRaf (Homo sapiens, UniProt P15056); assay: KINOMEscan competition binding assay, BRaf; conditions: ratio PoC (off-target)/PoC (MKK4)
T3 construct: purchased ProQinase GmbH, Freiburg, Germany (33PanQinase Assay Service)
T3 sequence (P15056 whole entry, species assumed): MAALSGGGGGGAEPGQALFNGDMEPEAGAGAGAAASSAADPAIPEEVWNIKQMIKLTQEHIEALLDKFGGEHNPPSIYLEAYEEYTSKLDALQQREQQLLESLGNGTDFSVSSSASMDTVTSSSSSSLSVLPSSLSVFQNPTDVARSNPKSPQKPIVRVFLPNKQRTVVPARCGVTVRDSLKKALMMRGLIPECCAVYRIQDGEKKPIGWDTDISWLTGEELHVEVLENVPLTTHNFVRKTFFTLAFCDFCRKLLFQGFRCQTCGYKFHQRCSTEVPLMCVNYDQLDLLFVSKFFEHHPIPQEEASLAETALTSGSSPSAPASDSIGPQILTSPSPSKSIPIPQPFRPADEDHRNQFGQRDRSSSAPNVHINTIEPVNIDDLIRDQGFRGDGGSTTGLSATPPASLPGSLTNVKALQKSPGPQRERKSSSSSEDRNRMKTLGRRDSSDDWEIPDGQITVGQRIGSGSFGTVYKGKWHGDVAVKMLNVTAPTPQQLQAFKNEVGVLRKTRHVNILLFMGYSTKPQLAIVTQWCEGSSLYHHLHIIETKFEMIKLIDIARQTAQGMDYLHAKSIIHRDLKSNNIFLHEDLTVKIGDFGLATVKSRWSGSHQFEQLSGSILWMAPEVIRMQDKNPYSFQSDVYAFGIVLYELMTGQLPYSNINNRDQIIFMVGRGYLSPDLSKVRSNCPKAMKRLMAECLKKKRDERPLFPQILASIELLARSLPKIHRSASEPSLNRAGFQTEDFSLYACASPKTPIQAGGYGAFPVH
Procedure: as §1, §2, §3, §4, §5

MKK7 [4] = target: T4, MKK7 (Homo sapiens, UniProt O14733); assay: KINOMEscan competition binding assay, MKK7; design: M1/R419; host or cells: HEK-293; conditions: ratio PoC (off-target)/PoC (MKK4)
T4 sequence (O14733 1-419): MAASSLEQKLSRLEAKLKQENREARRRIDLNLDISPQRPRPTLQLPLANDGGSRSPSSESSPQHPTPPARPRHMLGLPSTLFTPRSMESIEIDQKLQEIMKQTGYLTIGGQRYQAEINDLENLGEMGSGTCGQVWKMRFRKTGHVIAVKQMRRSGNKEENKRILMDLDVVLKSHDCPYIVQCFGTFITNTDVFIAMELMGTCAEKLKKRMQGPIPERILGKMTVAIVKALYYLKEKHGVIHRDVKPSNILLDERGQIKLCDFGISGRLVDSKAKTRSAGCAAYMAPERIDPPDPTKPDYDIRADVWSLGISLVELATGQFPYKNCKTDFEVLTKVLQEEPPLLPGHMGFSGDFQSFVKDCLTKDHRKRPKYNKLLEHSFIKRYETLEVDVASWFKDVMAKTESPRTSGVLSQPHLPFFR
Procedure: as §1, §2, §3, §4, §5

MKK4 [5] = target: T5, MKK4 (Homo sapiens, UniProt P45985); assay: 33PanQinase enzyme assay, MKK4; format: biochemical; conditions: assay 'IC50'; for pIC50: read-out: Potency MKK4 (IC50)
T5 construct: purchased ProQinase GmbH, Freiburg, Germany (33PanQinase Assay Service)
T5 sequence (P45985 1-399): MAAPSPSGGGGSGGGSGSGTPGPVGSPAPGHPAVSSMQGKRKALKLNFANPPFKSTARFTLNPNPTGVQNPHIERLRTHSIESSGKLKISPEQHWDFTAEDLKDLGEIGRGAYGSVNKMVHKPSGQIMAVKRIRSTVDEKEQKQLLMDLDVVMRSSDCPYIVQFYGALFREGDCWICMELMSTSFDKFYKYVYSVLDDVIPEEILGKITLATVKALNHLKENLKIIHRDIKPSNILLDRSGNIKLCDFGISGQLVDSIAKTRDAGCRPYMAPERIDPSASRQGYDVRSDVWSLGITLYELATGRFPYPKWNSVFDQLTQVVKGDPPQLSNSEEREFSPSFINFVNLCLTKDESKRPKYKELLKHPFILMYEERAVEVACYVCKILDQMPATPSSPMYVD
Summary of the method: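 Inhibition measured as 33Pi transfer to substrate after a 60-min, 30 °C reaction, acid-stopped and scintillation-counted.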

MKK7 [6] = target: T4, MKK7; assay: 33PanQinase enzyme assay, MKK7; format: biochemical; design: purchased ProQinase GmbH, Freiburg, Germany (33PanQinase Assay Service); conditions: ratio IC50(MKK7)/IC50(MKK4)
Summary of the method: (§6)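 Off-target selectivity is the ratio IC50(off-target)/IC50(MKK4), with IC50 values from least-squares fitting and single-point data as % residual activity. Reactions of enzyme/substrate mix, ATP and compound ran 60 min at 30° C before H3PO4 stop; ^33P incorporation read on a scintillation counter.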

BRaf [7] = target: T3, BRaf; assay: 33PanQinase enzyme assay, BRaf; format: biochemical; conditions: ratio IC50(BRaf)/IC50(MKK4)
Summary of the method: as §6

JNK1 [8] = target: T1, JNK1; assay: 33PanQinase enzyme assay, JNK1; format: biochemical; design: purchased ProQinase GmbH, Freiburg, Germany (33PanQinase Assay Service); conditions: ratio IC50(JNK1)/IC50(MKK4)
Summary of the method: as §6
Target sequence in this assay (P45983 whole entry): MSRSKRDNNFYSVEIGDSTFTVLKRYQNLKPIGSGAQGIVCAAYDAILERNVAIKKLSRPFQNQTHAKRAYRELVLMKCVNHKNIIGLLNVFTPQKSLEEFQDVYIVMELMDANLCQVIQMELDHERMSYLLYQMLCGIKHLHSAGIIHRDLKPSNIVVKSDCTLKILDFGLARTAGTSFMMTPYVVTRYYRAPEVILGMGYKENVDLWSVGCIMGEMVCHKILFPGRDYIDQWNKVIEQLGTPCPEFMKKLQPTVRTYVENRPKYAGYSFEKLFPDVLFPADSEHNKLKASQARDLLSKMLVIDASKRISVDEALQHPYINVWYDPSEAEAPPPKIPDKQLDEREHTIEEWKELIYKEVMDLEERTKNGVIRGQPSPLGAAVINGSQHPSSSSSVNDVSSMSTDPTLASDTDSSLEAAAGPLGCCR

selectivity based on % Ctrl @100 nM vs. JNK1 (JNK1 [1])	MKK4 [% Ctrl @ 100 nM (MKK4 [2])	selectivity based on % Ctrl @100 nM vs. Braf (BRaf [3])	selectivity based on % Ctrl @100 nM vs. MKK7 (MKK7 [4])	Selectivity IVIKK7, IC50(off-target)/IC50(MKK4) (MKK7 [6])	Selectivity Braf, IC50(off-target)/IC50(MKK4) (BRaf [7])	Selectivity JNK1, IC50(off-target)/IC50(MKK4) (JNK1 [8])	Potency MKK4 (IC50) (MKK4 [5])	Structure (SMILES)	pIC50 (MKK4 [5])
◯ (3 ≥ Ratio)	◯ (30 ≤ PoC)	◯ (3 ≥ Ratio)	◯ (3 ≥ Ratio)					CCCS(=O)(=O)Nc1cc(Br)cc(C(=O)c2c[nH]c3ncc(-c4ccc(Cl)cc4)cc23)c1 [Example 13, N-(3-bromo-5-(5-(4-chlorophenyl)-1H-pyrrolo[2,3-b]pyridine-3-carbonyl)-phenyl)propane-1-sulfonamide]	
◯ (3 ≥ Ratio)	◯ (30 ≤ PoC)	◯ (3 ≥ Ratio)	◯ (3 ≥ Ratio)					CCCS(=O)(=O)Nc1cc(Cl)cc(C(=O)c2c[nH]c3ncc(-c4ccc(Cl)cc4)cc23)c1 [Example 16, N-(3-chloro-5-(5-(4-chlorophenyl)-1H-pyrrolo[2,3-b]pyridine-3-carbonyl)phenyl)propane-1-sulfonamide]	
+ (10 ≥ ratio > 3)	+ (3 ≤ PoC < 30)	◯ (3 ≥ Ratio)	+ (10 ≥ ratio > 3)					C#Cc1cnc2[nH]cc(C(=O)c3c(F)ccc(NS(=O)(=O)CCC)c3F)c2c1 [Example 18, N-(3-(5-ethynyl-1H-pyrrolo[2,3-b]pyridine-3-carbonyl)-2,4-difluorophenyl) propane-1-sulfonamide]	
++ (100 ≥ ratio > 10)	+ (3 ≤ PoC < 30)	++ (100 ≥ ratio > 10)	++ (100 ≥ ratio > 10)					CCCCS(=O)(=O)Nc1ccc(F)c(C(=O)c2c[nH]c3ncc(-c4ccc(F)cc4C)cc23)c1F [Example 19, N-(2,4-difluoro-3-(5-(4-fluoro-2-methylphenyl)-1H-pyrrolo[2,3-b]pyridine-3-carbonyl)phenyl)butane-1-sulfonamide]	
				+++ (IC50(off-target)/IC50(MKK4) > 100)	+++ (IC50(off-target)/IC50(MKK4) > 100)	+++ (IC50(off-target)/IC50(MKK4) > 100)		CCCS(=O)(=O)Nc1c(F)ccc(C(=O)c2c[nH]c3ncc(-c4ccncc4C)cc23)c1F [Example 235, N-(2,6-difluoro-3-(5-(3-methylpyridin-4-yl)-1H-pyrrolo[2,3-b]pyridine-3-carbonyl)phenyl)propane-1-sulfonamide]	> 7.00
				+++ (IC50(off-target)/IC50(MKK4) > 100)	+++ (IC50(off-target)/IC50(MKK4) > 100)	+++ (IC50(off-target)/IC50(MKK4) > 100)		CCCS(=O)(=O)Nc1c(F)ccc(C(=O)c2c[nH]c3ncc(-c4cnc(OC)nc4OC)cc23)c1F [Example 236, N-(3-(5-(2,4-dimethoxypyrimidin-5-yl)-1H-pyrrolo[2,3-b]pyridine-3-carbonyl)-2,6-difluorophenyl)propane-1-sulfonamide]	> 7.00
				+++ (IC50(off-target)/IC50(MKK4) > 100)	+++ (IC50(off-target)/IC50(MKK4) > 100)	+++ (IC50(off-target)/IC50(MKK4) > 100)	+++·	CCCS(=O)(=O)Nc1c(F)ccc(C(=O)c2c[nH]c3ncc(-c4cnc(Cl)nc4)cc23)c1F [Example 237, N-(3-(5-(2-chloropyrimidin-5-yl)-1H-pyrrolo[2,3-b]pyridine-3-carbonyl)-2,6-difluorophenyl)propane-1-sulfonamide]	

Structure (SMILES)	selectivity based on % Ctrl @100 nM vs. JNK1 (JNK1 [1])	MKK4 [% Ctrl @ 100 nM (MKK4 [2])	selectivity based on % Ctrl @100 nM vs. Braf (BRaf [3])	selectivity based on % Ctrl @100 nM vs. MKK7 (MKK7 [4])	Selectivity IVIKK7, IC50(off-target)/IC50(MKK4) (MKK7 [6])	Selectivity Braf, IC50(off-target)/IC50(MKK4) (BRaf [7])	Selectivity JNK1, IC50(off-target)/IC50(MKK4) (JNK1 [8])	Potency MKK4 (IC50) (MKK4 [5])	pIC50 (MKK4 [5])
CCCNS(=O)(=O)c1cccc(C(=O)c2c[nH]c3ncc(Br)cc23)c1 [Example 14, 3-(5-bromo-1H-pyrrolo[2,3-b]pyridine-3-carbonyl)-N-propyl benzene sulfonamide]	◯ (3 ≥ Ratio)	◯ (30 ≤ PoC)	◯ (3 ≥ Ratio)	◯ (3 ≥ Ratio)					
CCCCS(=O)(=O)Nc1ccc(F)c(C(=O)c2c[nH]c3ncc(-c4ccc(OC)cc4Cl)cc23)c1F [Example 21, N-(3-(5-(2-chloro-4-methoxyphenyl)-1H-pyrrolo[2,3-b]pyridine-3-carbonyl)-2,4-difluorophenyl)butane-1-sulfonamide]	++ (100 ≥ ratio > 10)	++ (1 ≤ PoC < 3)	++ (100 ≥ ratio > 10)	++ (100 ≥ ratio > 10)					
O=C(c1cccc(NS(=O)(=O)Cc2ccccc2)c1F)c1c[nH]c2ncc(-c3cc4c(cc3Cl)OCCO4)cc12 [Example 127, N-(3-(5-(7-chloro-2,3-dihydrobenzo[b][1,4]dioxin-6-yl)-1H-pyrrolo[2,3-b]pyridine-3-carbonyl)-2-fluorophenyl)-1-phenylmethanesulfonamide]		++ (1 ≤ PoC < 3)							6.00 to 7.00
CCCS(=O)(=O)Nc1c(F)ccc(C(=O)c2c[nH]c3ncc(C4CCC4)cc23)c1F [Example 239, N-(3-(5-cyclobutyl-1H-pyrrolo[2,3-b]pyridine-3-carbonyl)-2,6-difluorophenyl)propane-1-sulfonamide]					+++ (IC50(off-target)/IC50(MKK4) > 100)	+++ (IC50(off-target)/IC50(MKK4) > 100)	++ (100 ≥ IC50(off-target)/IC50(MKK4) > 10)		> 7.00
